From the supplement of paper PMC6045584
± gives the standard deviation of the averaged measurements.

Tests used:
VINORELBINE = compound: CCC1=C[C@@H]2CN(C1)Cc1c([nH]c3ccccc13)[C@@](C(=O)OC)(c1cc3c(cc1OC)N(C)[C@H]1[C@@](O)(C(=O)OC)[C@H](OC(C)=O)[C@]4(CC)C=CCN5CC[C@]31[C@@H]54)C2 [VINORELBINE]; assay: surviving fraction relative to DMSO-only wells; higher = less growth inhibition; settings: exposure time: 5 days
Method in brief: (§1)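 Inhibitors were tested at 0.5, 1, 5, 10, 50, 100, 500 and 1000 nM, applied continuously for five days beginning 24 hours after log-phase tumour cells were seeded at 250–500 per well in 384-well plates. CellTiter-Glo luminescence served as the viability measure, expressed as surviving fraction against the median of DMSO-only wells. Each line, screened three times, was kept only with replicate Pearson r >0.7 and median Z' >0.3.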

SUNITINIB = compound: CCN(CC)CCNC(=O)c1c(C)[nH]c(/C=C2\C(=O)Nc3ccc(F)cc32)c1C [SUNITINIB]; assay: as above; settings: exposure time: 5 days
Method in brief: as §1

Test System	surviving fraction (VINORELBINE; 0.5 nM)	surviving fraction (VINORELBINE; 1 nM)	surviving fraction (VINORELBINE; 5 nM)	surviving fraction (VINORELBINE; 10 nM)	surviving fraction (VINORELBINE; 50 nM)	surviving fraction (VINORELBINE; 100 nM)	surviving fraction (VINORELBINE; 500 nM)	surviving fraction (VINORELBINE; 1000 nM)	surviving fraction (SUNITINIB; 0.5 nM)	surviving fraction (SUNITINIB; 1 nM)	surviving fraction (SUNITINIB; 5 nM)	surviving fraction (SUNITINIB; 10 nM)	surviving fraction (SUNITINIB; 50 nM)	surviving fraction (SUNITINIB; 100 nM)	surviving fraction (SUNITINIB; 500 nM)	surviving fraction (SUNITINIB; 1000 nM)
SG31 HEADNECK	1.08 ± 0.15	1.19 ± 0.14	0.848 ± 0.12	0.82 ± 0.11	0.369 ± 0.04	0.315 ± 0.021	0.308 ± 0.057	0.38 ± 0.072	0.778 ± 0.067	0.858 ± 0.037	0.884 ± 0.12	0.419 ± 0.04	0.93 ± 0.06	0.962 ± 0.14	0.797 ± 0.13	0.343 ± 0.017
SG32 HEADNECK	1.32 ± 0.21	1.18 ± 0.3	0.81 ± 0.042	0.621 ± 0.047	0.258 ± 0.041	0.302 ± 0.053	0.409 ± 0.076	0.437 ± 0.048	–	0.578 ± 0.032	0.771 ± 0.13	0.423 ± 0.078	0.96 ± 0.045	0.609 ± 0.062	0.317 ± 0.048	0.0993 ± 0.011
SG43 HEADNECK	1.04 ± 0.14	1.13 ± 0.097	0.785 ± 0.095	0.669 ± 0.075	0.47 ± 0.036	0.364 ± 0.093	0.242 ± 0.066	0.138 ± 0.066	1.27 ± 0.13	1.25 ± 0.068	0.975 ± 0.18	–	0.824 ± 0.12	1.02 ± 0.13	0.982 ± 0.09	1.52 ± 0.029
SIHA CERVIX	1.09 ± 0.064	1.14 ± 0.13	1.12 ± 0.027	1.03 ± 0.064	0.324 ± 0.016	0.277 ± 0.085	0.341 ± 0.022	0.327 ± 0.055	0.957 ± 0.088	–	0.972 ± 0.04	0.984 ± 0.028	1.11 ± 0.047	1.02 ± 0.086	0.725 ± 0.026	0.418 ± 0.04
SJSA1 BONE	1.03 ± 0.021	1 ± 0.041	1.04 ± 0.076	0.971 ± 0.033	0.499 ± 0.029	0.211 ± 0.022	0.0877 ± 0.009	0.0907 ± 0.0081	–	0.869 ± 0.017	–	0.872 ± 0.022	1.02 ± 0.038	–	0.8283 ± 0.0078	0.579 ± 0.011
SKBR3 BREAST	0.957 ± 0.093	1.17 ± 0.035	0.532 ± 0.12	0.291 ± 0.058	0.146 ± 0.013	0.156 ± 0.019	0.179 ± 0.0087	0.182 ± 0.015	–	0.795 ± 0.073	0.738 ± 0.1	0.696 ± 0.12	0.875 ± 0.035	0.867 ± 0.084	0.64 ± 0.064	0.492 ± 0.014
SNU475 LIVER	0.982 ± 0.019	0.998 ± 0.011	1.01 ± 0.029	1 ± 0.038	0.386 ± 0.041	0.197 ± 0.021	0.17 ± 0.019	0.204 ± 0.032	–	0.729 ± 0.052	0.814 ± 0.049	0.371 ± 0.031	–	0.8163 ± 0.0045	0.752 ± 0.022	0.193 ± 0.01
SUM44 BREAST	1.01 ± 0.068	0.972 ± 0.034	0.668 ± 0.068	0.387 ± 0.024	0.258 ± 0.013	0.225 ± 0.023	0.264 ± 0.014	0.256 ± 0.024	0.82 ± 0.065	0.877 ± 0.02	0.966 ± 0.061	0.915 ± 0.04	1.07 ± 0.076	1.11 ± 0.023	–	0.958 ± 0.013
SUM149 BREAST	1.07 ± 0.072	1.11 ± 0.038	1.03 ± 0.059	0.768 ± 0.076	0.052 ± 0.0027	0.0443 ± 0.0076	0.0563 ± 0.0047	0.061 ± 0.0046	0.797 ± 0.036	0.755 ± 0.016	0.884 ± 0.052	0.213 ± 0.016	0.906 ± 0.061	0.756 ± 0.039	0.619 ± 0.017	0.176 ± 0.01
SUM149.B1*.S BREAST	1.11 ± 0.042	1.06 ± 0.05	1.09 ± 0.057	0.994 ± 0.015	0.338 ± 0.038	0.154 ± 0.017	0.171 ± 0.019	0.193 ± 0.0067	0.877 ± 0.07	0.786 ± 0.039	–	0.437 ± 0.023	0.988 ± 0.02	0.873 ± 0.022	0.789 ± 0.02	0.27 ± 0.0057
SUM159 BREAST	0.966 ± 0.14	0.944 ± 0.2	0.941 ± 0.2	0.908 ± 0.23	0.423 ± 0.19	0.156 ± 0.052	0.129 ± 0.053	0.12 ± 0.046	–	0.9683 ± 0.0076	–	0.927 ± 0.06	0.914 ± 0.12	–	0.839 ± 0.13	0.548 ± 0.11
SYO1 SYNOVIAL	1.03 ± 0.021	1 ± 0.027	0.818 ± 0.056	0.429 ± 0.062	0.114 ± 0.011	0.0666 ± 0.0041	0.052 ± 0.0061	0.0546 ± 0.005	0.789 ± 0.035	0.609 ± 0.092	0.664 ± 0.03	0.313 ± 0.13	0.819 ± 0.013	0.768 ± 0.036	0.52 ± 0.014	0.0887 ± 0.054
T47D BREAST	1.03 ± 0.026	1.01 ± 0.03	0.735 ± 0.026	0.609 ± 0.023	0.356 ± 0.0061	0.341 ± 0.016	0.369 ± 0.025	0.373 ± 0.013	0.93 ± 0.037	0.896 ± 0.059	0.911 ± 0.018	0.817 ± 0.034	1.11 ± 0.027	1.13 ± 0.038	1.13 ± 0.04	0.985 ± 0.077
U2OS BONE	1.09 ± 0.022	1.03 ± 0.044	0.993 ± 0.032	0.954 ± 0.04	0.569 ± 0.036	0.273 ± 0.023	0.116 ± 0.0097	0.0883 ± 0.012	0.882 ± 0.039	0.893 ± 0.032	0.95 ± 0.032	–	0.956 ± 0.026	0.94 ± 0.038	0.549 ± 0.014	0.262 ± 0.0072
VCAP PROSTATE	1.1 ± 0.096	1.02 ± 0.035	0.64 ± 0.04	0.299 ± 0.031	0.0883 ± 0.012	0.0827 ± 0.021	0.122 ± 0.0049	0.148 ± 0.022	0.976 ± 0.065	1 ± 0.088	1.09 ± 0.07	1.02 ± 0.038	1.06 ± 0.077	1.09 ± 0.099	0.734 ± 0.034	0.519 ± 0.06
VP229 BREAST	1.13 ± 0.18	0.962 ± 0.062	0.958 ± 0.098	0.8 ± 0.048	0.351 ± 0.043	0.297 ± 0.016	0.275 ± 0.012	0.245 ± 0.014	0.708 ± 0.076	0.675 ± 0.1	0.709 ± 0.04	0.709 ± 0.065	0.955 ± 0.12	0.964 ± 0.038	0.762 ± 0.064	0.364 ± 0.051
YAMATO SYNOVIAL	1.04 ± 0.06	1.08 ± 0.042	1 ± 0.024	0.646 ± 0.05	0.391 ± 0.036	0.36 ± 0.014	0.346 ± 0.015	0.397 ± 0.0053	–	0.392 ± 0.031	0.586 ± 0.058	0.0847 ± 0.0081	–	0.583 ± 0.021	0.588 ± 0.046	0.0633 ± 0.0023
ZR751 BREAST	1.17 ± 0.19	1.07 ± 0.1	0.7 ± 0.1	0.472 ± 0.07	0.492 ± 0.054	0.431 ± 0.057	0.297 ± 0.064	0.263 ± 0.041	–	1.1 ± 0.16	1.15 ± 0.083	–	1.31 ± 0.25	–	1.22 ± 0.16	–
